Test results from PubChem BioAssay (NCI).
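Cultured in 96-well plates, cells were exposed to test compound for 48 hours across five concentrations. At the GI50, growth is halved. TGI denotes the concentration required for complete inhibition of growth.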

How the values were obtained:
Test in all cases: inhibition of tumour cell growth, NCI panel, 48 h
[1] = tested on: HL-60(TB) leukemia
[2] = tested on: HOP-62 NSCLC
[3] = tested on: LOX IMVI melanoma
[4] = tested on: MALME-3M melanoma
[5] = tested on: MCF7 breast
[6] = tested on: SF-268 CNS
[7] = tested on: SNB-19 CNS
[8] = tested on: SW-620 colon
[9] = tested on: UO-31 renal
[10] = tested on: SR leukemia

| Structure (SMILES) | GI50 [1] [µM] | TGI [1] [µM] | GI50 [2] [µM] | TGI [2] [µM] | GI50 [3] [µM] | TGI [3] [µM] | GI50 [4] [µM] | TGI [4] [µM] | GI50 [5] [µM] | TGI [5] [µM] | GI50 [6] [µM] | TGI [6] [µM] | GI50 [7] [µM] | TGI [7] [µM] | GI50 [8] [µM] | TGI [8] [µM] | GI50 [9] [µM] | TGI [9] [µM] | TGI [10] [µM] | GI50 [10] [µM] |
| --- | --- | --- | --- | --- | --- | --- | --- | --- | --- | --- | --- | --- | --- | --- | --- | --- | --- | --- | --- | --- |
| Cc1cccc(Oc2ccc(Nc3ncnc4ccc(NC(=O)CN(C)C)cc34)cc2Cl)c1 | 2.07 | 4.72 | 1.89 | 4.16 | 1.53 | 2.86 | 1.72 | 3.35 | 1.69 | 3.87 | 1.47 | 3.1 | 2.11 | 6.35 | 1.64 | 3.05 | 1.12 | 2.47 |  |  |
| N#CC1(CCCCl)CCCCC1 |  | > 100 |  |  |  | > 100 |  | > 100 |  |  |  | > 100 |  | > 100 |  | > 100 |  | > 100 | > 100 |  |
| O=[N+]([O-])c1ccc(/C=C/c2ccc(/C=C/c3ccc([N+](=O)[O-])cc3[N+](=O)[O-])cc2)c([N+](=O)[O-])c1 |  | > 100 |  | > 100 |  |  |  | > 100 |  |  |  |  |  |  |  | > 100 |  | > 100 |  |  |
| COc1cc2c(Oc3ccc(-c4cnc(Nc5ccc(F)cc5)n(C)c4=O)cc3F)ccnc2cc1OCCCN1CCOCC1 |  |  |  |  | 1.23 | 2.55 | 0.291 | 1.41 | 0.783 | 2.47 | 1.46 | 3.38 | 2.03 | 4.52 |  |  | 0.906 | 2.21 |  |  |
| O=C1c2ccccc2-c2c1c1c(O)cccc1n2Cc1ccccc1 |  |  | 12.1 | 29.8 | 10.1 | > 100 | 2.76 | 8.65 | 6.75 | 30.8 | 6.58 | 37.9 | 14.4 | 82.5 | 38 | > 100 | 21.8 | > 100 | > 100 | 30.5 |
| CN(C)[C@@H]1C(=O)C(C(=O)NCc2nc3[nH]cnc(=S)c3[nH]2)=C(O)[C@@]2(O)C(=O)C3=C(O)c4c(O)cccc4[C@@](C)(O)[C@H]3C[C@@H]12 |  |  | 1.4 | > 100 | 1.23 | > 100 | > 100 | > 100 | 1.57 | > 100 |  |  | > 100 | > 100 | 17 | > 100 | 3.69 | > 100 | > 100 | 1.92 |
| Cc1ccccc1NC(=O)C1C(=O)N(c2ccccc2C)C(=O)/C1=N\NC(N)=O (stereo not drawn) |  | > 100 |  | > 100 |  |  |  | > 100 |  |  |  | > 100 |  | > 100 |  | > 100 |  | > 100 | > 100 |  |
| O/N=C1/C(=C/c2ccc(OCc3ccccc3)cc2)CCCC1C(NO)c1ccc(OCc2ccccc2)cc1 (stereo not drawn) |  | > 100 |  | > 100 |  | 24.5 |  | > 100 |  |  |  |  |  | > 100 |  | > 100 |  | > 100 | > 100 |  |
| N#Cc1c(CC(=O)O)cc(=O)n2c1[nH]c1ccccc12 |  | > 100 |  | > 100 |  | > 100 |  | > 100 |  |  |  | > 100 |  | > 100 |  | > 100 |  | > 100 | > 100 |  |
| COc1cc2c(cc1C)NC(=O)/C2=C\c1ccc(Oc2ccccc2)cc1 | 0.0511 | 11.8 | 16.9 | 31 | 14 | 27 | 20.1 | 41.1 |  |  |  |  | 17.8 | 32.9 | 16.1 | 32.5 | 14.8 | 30.9 | 2.1 | 0.0697 |
| O=C1c2ccccc2N1C(=O)c1ccccc1[N+](=O)[O-] |  |  |  | > 100 |  | 81.6 |  | > 100 |  | > 100 |  | > 100 |  | > 100 |  | > 100 |  | > 100 | > 100 |  |
| COc1ccc(-c2c(Nc3ccccn3)nc3c(C4=CCCCC4)c(-c4ccccc4)[nH]n3c2=O)cc1 |  |  | 3.73 | 22.9 | 1.8 | > 100 | 3.93 | 60.2 | 1.81 | 15.5 | 2.64 | 42.4 | 3.12 | 17.2 | 3.07 | > 100 | 2.19 | > 100 |  |  |
| O=C1Nc2ccc(Cl)cc2/C1=N/c1nc(-c2ccc(Cl)cc2)cs1 |  |  |  |  |  |  |  |  |  |  | 1.29 | 4.41 |  |  | 1.67 | 4.29 |  |  | > 100 | 2.74 |
| O=C(CC1(O)C(=O)Nc2c(Cl)cc(Cl)cc21)c1cccc([N+](=O)[O-])c1 (stereo not drawn) |  |  |  | 98.6 |  | 35.5 |  | 35.9 |  | 33.3 |  | > 100 |  | > 100 |  | > 64.4 |  | 60.1 | > 100 |  |
| CNS(=O)(=O)NNS(=O)(=O)c1ccc(C)cc1 |  | > 100 |  | > 100 |  |  |  | > 100 |  |  |  | > 100 |  | > 100 |  | > 100 |  | > 100 | > 100 |  |
| O=C1c2ccccc2C2(O)N(c3ccccc3)C(=S)N(c3ccccc3)C12O (stereo not drawn) |  |  |  | > 100 |  | > 100 |  | > 100 |  |  |  | > 100 |  | > 100 |  | > 100 |  | > 100 |  |  |
| O=C(/C=C(\[O-])c1ccccc1)CCCCCCC(=O)/C=C(\[O-])c1ccccc1.O=C(/C=C(\[O-])c1ccccc1)CCCCCCC(=O)/C=C(\[O-])c1ccccc1.O=C(/C=C(\[O-])c1ccccc1)CCCCCCC(=O)/C=C(\[O-])c1ccccc1.[Y+3].[Y+3] | 14 | > 50 | 18.8 | > 50 | > 50 | > 50 | > 50 | > 50 |  |  | 41.5 | > 50 | 19 | > 50 | > 50 | > 50 | > 50 | > 50 |  |  |
| CCCCCNC(=O)CCCCCCCCCCCNC(=O)CCCCCCCCCCN1C=CC(=CC=C2C=CC(=O)C=C2)C=C1 |  | 8.83 |  | > 100 |  | > 100 |  | > 100 |  |  |  | > 100 |  | > 100 |  | > 100 |  | > 100 | > 100 |  |
